# Laboratory results as given in paper PMC4739419, “Mutations in the nucleotide binding and hydrolysis domains of Helicobacter pylori MutS2 lead to altered biochemical activities and inactivation of its in vivo function” (BMC Microbiology, 2016).
# Columns and labels:
# HpMutS2-G338R = target: T1, HpMutS2-G338R (Helicobacter pylori, UniProt O25338, G338R); test: Tryptophan fluorescence-quenching nucleotide binding assay; conditions: no divalent metal ions, protein 1 μM, 25 °C; read-out: Kd (dissociation constant)
# T1 construct: (A) HpMutS2-G338R (1-762): Mol. wt; (kDa): 87.9; His6 (C); made in house; host or cells: E. coli Rosetta (DE3) pLysS
# T1 sequence (O25338 1-762 G338R): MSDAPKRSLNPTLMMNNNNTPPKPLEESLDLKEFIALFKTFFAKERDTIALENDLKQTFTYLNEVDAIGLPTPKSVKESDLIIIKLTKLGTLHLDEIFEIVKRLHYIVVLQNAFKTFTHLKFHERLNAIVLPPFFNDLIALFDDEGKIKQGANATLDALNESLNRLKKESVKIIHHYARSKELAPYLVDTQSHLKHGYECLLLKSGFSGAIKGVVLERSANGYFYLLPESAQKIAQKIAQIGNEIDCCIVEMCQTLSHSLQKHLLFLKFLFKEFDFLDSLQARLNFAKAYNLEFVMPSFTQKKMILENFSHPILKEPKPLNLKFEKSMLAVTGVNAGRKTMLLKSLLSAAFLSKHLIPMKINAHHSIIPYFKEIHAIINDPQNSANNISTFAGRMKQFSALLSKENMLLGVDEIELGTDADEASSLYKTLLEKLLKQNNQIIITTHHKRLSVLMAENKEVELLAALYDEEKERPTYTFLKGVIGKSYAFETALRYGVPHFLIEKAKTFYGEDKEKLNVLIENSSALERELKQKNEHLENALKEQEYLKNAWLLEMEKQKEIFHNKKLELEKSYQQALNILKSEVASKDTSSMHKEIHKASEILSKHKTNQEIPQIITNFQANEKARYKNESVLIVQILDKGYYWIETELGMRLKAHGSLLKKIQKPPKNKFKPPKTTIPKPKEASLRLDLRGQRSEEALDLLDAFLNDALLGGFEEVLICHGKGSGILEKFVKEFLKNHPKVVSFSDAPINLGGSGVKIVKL
# Method: (§1) Next, the ATP hydrolysing abilities of HpMutS2-G338R and HpMutS2-E413A were tested and compared to that of wild-type HpMutS2. […] Therefore, to determine the nucleotide binding efficiencies of HpMutS2, HpMutS2-G338R, and HpMutS2-E413A, intrinsic fluorescence properties of these proteins were exploited. HpMutS2 has two tryptophan residues at positions 551 and 644. A fluorescence-quenching assay was used to determine the ATP and ADP binding affinities of HpMutS2 and its mutants. Quenching of the Trp fluorescence was recorded upon titration with ATP and ADP in absence of any divalent metal ions. Saturation isotherms generated from the changes in the fluorescence emission spectra of HpMutS2, HpMutS2-G338R, and HpMutS2-E413A were used to calculate the dissociation constants for ATP and ADP (Figs. 2a, b and c respectively).
# (§2) Fig. 2 Nucleotide binding affinities of a HpMutS2 b HpMutS2-G338R and c HpMutS2-E413A. Tryptophan fluorescence assays described in the Methods section were used to determine the nucleotide binding affinities of proteins.
# (§3) Fluorescence spectroscopy analysis of HpMutS2 was carried out based on the intrinsic fluorescent signal of tryptophan. The proteins were dialyzed in buffer B (50 mM Tris pH 8.0 and 100 mM NaCl) for 4–6 h with at least two changes of the buffer. Fluorescence intensities were measured on a Shimadzu, RF 5000 spectrofluorimeter using a 1-cm stirred quartz cuvette at 25 °C. The emission spectra were recorded over a wavelength of 300–400 nm with an excitation wavelength of 280 nm. To measure the dissociation constants for ATP and ADP, small aliquots of cofactor were added to proteins (1 μM), and spectra were recorded. Each spectra recorded was an average of three scans. The maximum fluorescence intensities observed at around 340 nm were selected for calculating the difference in intrinsic fluorescence of protein alone and in the presence of ligand. Control titrations were conducted and all the fluorescence emission spectra were corrected by subtracting control spectra. The dissociation constants were calculated graphically using a plot of ΔF/ΔFmax versus ligand concentration. ΔF is the magnitude of the difference between the observed fluorescence intensity at a given concentration of ligand and the fluorescence intensity in the absence of ligand and ΔFmax is the difference at saturating concentration of ligand.
# HpMutS2-E413A = target: T2, HpMutS2-E413A (Helicobacter pylori, UniProt O25338, E413A); test: as above; conditions: no divalent metal ions, protein 1 μM, 25 °C; read-out: Kd (dissociation constant)
# T2 construct: (A) HpMutS2-E413A (1-762): Mol. wt; (kDa): 87.7; His6 (C); made in house; host or cells: E. coli Rosetta (DE3) pLysS
# T2 sequence (O25338 1-762 E413A): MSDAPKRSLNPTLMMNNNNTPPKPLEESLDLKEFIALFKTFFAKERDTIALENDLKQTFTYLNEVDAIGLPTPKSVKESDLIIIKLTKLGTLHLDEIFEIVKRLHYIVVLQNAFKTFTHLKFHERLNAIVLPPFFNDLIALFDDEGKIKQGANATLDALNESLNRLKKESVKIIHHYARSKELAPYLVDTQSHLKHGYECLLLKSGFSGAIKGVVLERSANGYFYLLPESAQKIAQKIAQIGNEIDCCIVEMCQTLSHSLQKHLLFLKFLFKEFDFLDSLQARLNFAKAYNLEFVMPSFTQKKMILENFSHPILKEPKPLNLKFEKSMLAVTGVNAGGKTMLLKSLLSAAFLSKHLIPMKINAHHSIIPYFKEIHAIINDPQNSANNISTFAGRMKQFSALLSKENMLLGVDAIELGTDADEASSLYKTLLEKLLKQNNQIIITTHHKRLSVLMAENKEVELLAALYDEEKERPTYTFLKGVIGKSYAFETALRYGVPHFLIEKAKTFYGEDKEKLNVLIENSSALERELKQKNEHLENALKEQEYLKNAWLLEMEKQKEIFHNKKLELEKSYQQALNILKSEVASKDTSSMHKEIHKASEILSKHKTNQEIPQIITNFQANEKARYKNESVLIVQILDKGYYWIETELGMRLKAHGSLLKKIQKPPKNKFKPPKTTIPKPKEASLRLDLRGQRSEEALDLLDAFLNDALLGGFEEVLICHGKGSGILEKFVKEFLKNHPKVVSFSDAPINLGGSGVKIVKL
# Method: as §1, §2, §3
# HpMutS2 = target: T3, HpMutS2 (Helicobacter pylori, UniProt O25338); test: as above
# T3 construct: (A) HpMutS2 (1-762): Mol. wt; (kDa): 87.8; His6 (C); made in house; host or cells: E. coli Rosetta (DE3) pLysS
# Method: as §1, §2, §3
# ssDNA-HpMutS2 complex = target: T4, ssDNA-HpMutS2 complex (Helicobacter pylori, UniProt O25338); test: Chase experiment on preformed nucleoprotein complex; type: binding; conditions: highest concentration of ATP used (0.25–5 mM)
# T4 construct: (A) HpMutS2 (1-762): Mol. wt; (kDa): 87.8; His6 (C); made in house; host or cells: E. coli Rosetta (DE3) pLysS
# T4 sequence (O25338 1-762): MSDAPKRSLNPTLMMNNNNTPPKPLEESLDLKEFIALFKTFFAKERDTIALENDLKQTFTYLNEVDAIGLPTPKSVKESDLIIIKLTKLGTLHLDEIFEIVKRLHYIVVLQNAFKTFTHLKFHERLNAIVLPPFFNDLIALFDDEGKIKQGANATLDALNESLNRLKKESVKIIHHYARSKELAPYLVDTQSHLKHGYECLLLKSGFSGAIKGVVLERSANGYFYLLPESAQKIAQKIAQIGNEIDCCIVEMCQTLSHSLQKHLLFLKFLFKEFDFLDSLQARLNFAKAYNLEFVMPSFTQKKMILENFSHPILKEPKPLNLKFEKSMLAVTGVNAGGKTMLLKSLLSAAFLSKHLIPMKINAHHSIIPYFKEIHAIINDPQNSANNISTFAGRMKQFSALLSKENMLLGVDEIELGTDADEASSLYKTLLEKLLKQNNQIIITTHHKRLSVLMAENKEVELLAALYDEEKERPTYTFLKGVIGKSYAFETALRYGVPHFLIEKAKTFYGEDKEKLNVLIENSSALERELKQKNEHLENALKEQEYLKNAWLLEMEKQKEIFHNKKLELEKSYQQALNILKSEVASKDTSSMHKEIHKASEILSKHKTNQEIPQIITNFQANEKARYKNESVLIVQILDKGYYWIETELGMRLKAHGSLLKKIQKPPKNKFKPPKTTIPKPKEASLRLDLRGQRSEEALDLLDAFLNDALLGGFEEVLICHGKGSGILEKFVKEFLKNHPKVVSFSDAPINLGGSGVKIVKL
smiles,measurement,setting,value
Nc1ncnc2c1ncn2[C@@H]1O[C@H](COP(=O)(O)OP(=O)(O)OP(=O)(O)O)[C@@H](O)[C@H]1O [ATP],Kd,HpMutS2-G338R,409 ± 70.4 µM
same,Kd,HpMutS2-E413A,220 ± 54.2 µM
same,Kd,"HpMutS2; no divalent metal ions, protein 1 μM, 25 °C, read-out: Kd (dissociation constant)",167 ± 24.3 µM
same,"Kd value, fold less than Km value",HpMutS2; wild-type HpMutS2,~ 2.4 fold
same,dissociation of ssDNA from preformed complex,ssDNA-HpMutS2 complex,~ 20%
